What was measured:
Hepatitis C virus [1] = assay: Antiviral activity against HCV GT1b-genotype assessed as inhibition of viral replication; format: functional, organism-based, Hepacivirus hominis
in vitro [2] = details: human
Hepatitis C virus [3] = assay: microbe, parasite or virus in culture
[4] = target: Serine/threonine-protein kinase mTOR (Homo sapiens, UniProt P42345)
in vitro [5] = details: human, HeLa cells
[6] = Cytotoxicity against human HaCaT cells; format: toxicity, cell-based
[7] = system: Middle East respiratory syndrome-related coronavirus; assay: microbe, parasite or virus in culture; format: functional
[8] = system: Vesicular stomatitis virus; assay: microbe, parasite or virus in culture
Ebolavirus [9] = assay: microbe, parasite or virus in culture; details: Orthoebolavirus, Huh-7
Lassa virus [10] = assay: microbe, parasite or virus in culture; details: Mammarenavirus lassaense
Lassa virus [11] = assay: microbe, parasite or virus in culture; details: Mammarenavirus lassaense, A549
Ebolavirus [12] = assay: microbe, parasite or virus in culture; details: Orthoebolavirus
Ebolavirus [13] = assay: microbe, parasite or virus in culture; format: functional, organism-based; details: Orthoebolavirus
Ebolavirus [14] = assay: microbe, parasite or virus in culture; details: Orthoebolavirus; remark: listed apart in the source
Marburgvirus [15] = assay: microbe, parasite or virus in culture; details: Orthomarburgvirus
Marburgvirus [16] = assay: microbe, parasite or virus in culture; format: functional, organism-based; details: Orthomarburgvirus
in vitro [17] = details: chlorocebus sabaeus, vero
Lassa virus [18] = assay: microbe, parasite or virus in culture; details: Mammarenavirus lassaense; remark: listed apart in the source
[19] = system: Human immunodeficiency virus; assay: microbe, parasite or virus in culture; format: functional, organism-based; details: Human immunodeficiency virus 1
in vitro [20] = details: human, jurkat 6c6-du cell
[21] = Cytotoxicity against HSG cells; format: toxicity, cell-based; details: human
Cytomegalovirus = assay: Antiviral activity against CMV; format: functional, organism-based; details: Human betaherpesvirus 5
Influenza A virus [22] = assay: microbe, parasite or virus in culture; format: functional, organism-based; details: H1N1
[23] = Cytotoxicity against human NCI-H1666 cells; format: toxicity, cell-based
Influenza A virus [24] = assay: Antiviral activity against influenza pH1N1 virus; format: functional, organism-based
[25] = Cytotoxicity against human LN-18 cells; format: toxicity, cell-based
[26] = target: Cyclin-dependent kinase 4 (Homo sapiens, UniProt P11802)
in vitro [27] = details: human, MDM cells
[28] = system: Human immunodeficiency virus 1; assay: microbe, parasite or virus in culture; format: functional, organism-based
Human alphaherpesvirus 3 = assay: microbe, parasite or virus in culture; format: functional, organism-based
[29] = system: Human immunodeficiency virus 2; assay: microbe, parasite or virus in culture; format: functional, organism-based
in vitro [30] = details: human, PBMC
[31] = system: Middle East respiratory syndrome-related coronavirus; assay: microbe, parasite or virus in culture
[32] = system: Feline infectious peritonitis virus; assay: microbe, parasite or virus in culture; details: Alphacoronavirus 1
Human coronavirus 229E [33] = assay: microbe, parasite or virus in culture
Dengue virus = assay: microbe, parasite or virus in culture; details: Huh-7
Human coronavirus 229E [34] = assay: microbe, parasite or virus in culture; remark: listed apart in the source
[35] = system: Middle East respiratory syndrome-related coronavirus; assay: microbe, parasite or virus in culture; remark: listed apart in the source
dengue virus type 2 = assay: microbe, parasite or virus in culture; format: functional, organism-based
[36] = Cytotoxicity against MDCK-II cells; format: toxicity, cell-based, Canis lupus familiaris; details: dog
Influenza A virus [37] = assay: Antiviral activity against influenza A RB1/H1N1pdm09 virus; format: functional, organism-based
[38] = Cytotoxicity against human A549 cells; format: toxicity, cell-based
Influenza A virus [39] = assay: Antiviral activity against influenza A virus infected in human A549 cells assessed as inhibition of viral replication at 10 uM relative to control; format: functional; design: scale not given: the % may be the effect or the level left
[40] = target: Receptor tyrosine-protein kinase erbB-2 (Homo sapiens, UniProt P04626); assay: Inhibition of HER2/ErbB-2 (unknown origin)
Influenza A virus [41] = assay: microbe, parasite or virus in culture; format: functional, organism-based
[42] = target: AP2-associated protein kinase 1 (Homo sapiens, UniProt Q2M2I8)
[43] = Cytotoxicity against human MCL cells; format: toxicity, cell-based

Sequence of Cyclin-dependent kinase 4 (P11802 whole entry): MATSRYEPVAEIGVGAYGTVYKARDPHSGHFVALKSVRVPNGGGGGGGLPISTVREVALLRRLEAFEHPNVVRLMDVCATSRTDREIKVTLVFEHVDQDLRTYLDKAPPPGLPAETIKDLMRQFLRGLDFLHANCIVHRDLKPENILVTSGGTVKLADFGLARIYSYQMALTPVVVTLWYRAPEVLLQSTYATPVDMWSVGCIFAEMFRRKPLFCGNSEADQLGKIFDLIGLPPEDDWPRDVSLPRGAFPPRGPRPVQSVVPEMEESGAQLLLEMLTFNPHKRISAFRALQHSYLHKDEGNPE
Sequence of AP2-associated protein kinase 1 (Q2M2I8 whole entry): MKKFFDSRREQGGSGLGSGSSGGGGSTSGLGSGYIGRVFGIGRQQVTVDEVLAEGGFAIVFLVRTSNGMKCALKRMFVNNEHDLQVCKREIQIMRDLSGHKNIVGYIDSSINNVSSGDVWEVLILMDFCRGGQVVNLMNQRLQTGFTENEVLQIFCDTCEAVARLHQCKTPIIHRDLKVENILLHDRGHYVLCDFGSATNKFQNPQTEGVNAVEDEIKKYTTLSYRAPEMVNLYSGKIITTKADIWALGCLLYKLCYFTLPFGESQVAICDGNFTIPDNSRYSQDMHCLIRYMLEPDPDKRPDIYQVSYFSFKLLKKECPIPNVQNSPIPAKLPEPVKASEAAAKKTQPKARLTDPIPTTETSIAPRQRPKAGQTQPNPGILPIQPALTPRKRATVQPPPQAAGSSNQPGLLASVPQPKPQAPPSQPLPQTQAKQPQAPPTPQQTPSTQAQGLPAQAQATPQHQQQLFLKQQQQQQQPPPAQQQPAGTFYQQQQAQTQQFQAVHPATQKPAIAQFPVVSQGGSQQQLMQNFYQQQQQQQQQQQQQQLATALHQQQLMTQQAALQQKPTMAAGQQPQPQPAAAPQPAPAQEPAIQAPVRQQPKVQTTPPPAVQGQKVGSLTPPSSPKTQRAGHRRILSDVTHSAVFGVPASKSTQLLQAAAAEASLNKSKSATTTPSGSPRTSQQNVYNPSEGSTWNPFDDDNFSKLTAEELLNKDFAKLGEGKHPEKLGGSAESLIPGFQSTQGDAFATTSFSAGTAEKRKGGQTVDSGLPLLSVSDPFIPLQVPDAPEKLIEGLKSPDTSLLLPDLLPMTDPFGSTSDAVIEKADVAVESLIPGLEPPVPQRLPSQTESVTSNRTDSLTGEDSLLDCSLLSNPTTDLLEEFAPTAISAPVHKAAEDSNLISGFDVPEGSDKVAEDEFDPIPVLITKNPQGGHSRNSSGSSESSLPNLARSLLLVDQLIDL
Sequence of Receptor tyrosine-protein kinase erbB-2 (P04626 whole entry): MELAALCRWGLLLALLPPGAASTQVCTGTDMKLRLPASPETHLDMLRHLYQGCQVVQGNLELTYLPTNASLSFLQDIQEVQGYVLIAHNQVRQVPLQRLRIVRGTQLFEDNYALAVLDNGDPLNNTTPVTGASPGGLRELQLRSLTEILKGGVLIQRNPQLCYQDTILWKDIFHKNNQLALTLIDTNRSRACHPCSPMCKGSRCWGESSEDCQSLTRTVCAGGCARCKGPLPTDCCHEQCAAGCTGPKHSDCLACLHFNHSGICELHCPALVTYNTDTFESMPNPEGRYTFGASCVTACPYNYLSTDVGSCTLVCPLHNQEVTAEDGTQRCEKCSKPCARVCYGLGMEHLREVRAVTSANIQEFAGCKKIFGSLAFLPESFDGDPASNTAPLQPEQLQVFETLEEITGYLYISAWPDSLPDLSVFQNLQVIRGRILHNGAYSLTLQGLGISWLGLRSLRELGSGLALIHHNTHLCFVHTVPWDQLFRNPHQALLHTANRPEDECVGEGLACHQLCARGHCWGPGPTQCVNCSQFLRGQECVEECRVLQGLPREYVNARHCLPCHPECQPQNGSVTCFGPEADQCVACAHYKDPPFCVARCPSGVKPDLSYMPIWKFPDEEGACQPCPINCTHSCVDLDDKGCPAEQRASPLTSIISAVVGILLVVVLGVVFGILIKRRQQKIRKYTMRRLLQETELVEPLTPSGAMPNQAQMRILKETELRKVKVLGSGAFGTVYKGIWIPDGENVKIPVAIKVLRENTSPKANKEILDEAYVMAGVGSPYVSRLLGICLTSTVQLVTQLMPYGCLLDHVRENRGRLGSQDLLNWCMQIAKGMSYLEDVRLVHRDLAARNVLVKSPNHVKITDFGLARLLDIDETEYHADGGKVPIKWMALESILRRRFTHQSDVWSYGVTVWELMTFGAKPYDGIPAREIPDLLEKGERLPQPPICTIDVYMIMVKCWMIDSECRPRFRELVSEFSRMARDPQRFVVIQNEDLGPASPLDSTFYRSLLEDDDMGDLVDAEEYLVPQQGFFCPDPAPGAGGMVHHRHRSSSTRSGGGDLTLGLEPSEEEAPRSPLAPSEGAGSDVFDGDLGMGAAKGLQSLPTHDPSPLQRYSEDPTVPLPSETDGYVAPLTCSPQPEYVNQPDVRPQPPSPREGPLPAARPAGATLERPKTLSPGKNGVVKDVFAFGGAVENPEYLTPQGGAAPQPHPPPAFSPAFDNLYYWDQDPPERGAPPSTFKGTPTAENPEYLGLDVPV

CC(C)S(=O)(=O)n1c(N)nc2ccc(/C(=N/O)c3ccccc3)cc21 [ENVIROXIME]
EC50 (Hepatitis C virus [1]): 100 nM
CC50 (in vitro [2]; Huh-7 cells): 25000 nM
EC50 (Hepatitis C virus [3]): 200 nM

CO[C@H]1C[C@@H]2CC[C@@H](C)[C@@](O)(O2)C(=O)C(=O)N2CCCC[C@H]2C(=O)O[C@H]([C@H](C)C[C@@H]2CC[C@@H](OCCO)[C@H](OC)C2)CC(=O)[C@H](C)/C=C(\C)[C@@H](O)[C@@H](OC)C(=O)[C@H](C)C[C@H](C)/C=C/C=C/C=C/1C [EVEROLIMUS]
IC50 [4]: 1.6 nM
CC50 (in vitro [5]): 28300 nM
CC50 [6]: 28300 nM
CC50 (in vitro [2]; Huh-7 cells): > 10000 nM
inhibition at 10 µM [7]: 56%

CN1CCC(Nc2ncc3ncnc(Nc4ccc(F)c(Cl)c4)c3n2)CC1 [FALNIDAMOL]
EC50 [8]: 30900 nM
EC50 (Ebolavirus [9]): 1100 nM
EC50 (Lassa virus [10]): 3200 nM
EC50 (Lassa virus [11]): 3200 nM
EC50 (Ebolavirus [12]): 1200 nM
EC50 (Ebolavirus [13]): 1100 nM
EC50 (Ebolavirus [14]): 1600 nM
EC50 (Marburgvirus [15]): 1800 nM
EC50 (Marburgvirus [16]): 1800 nM
CC50 (in vitro [17]): 29100 nM
EC50 (Lassa virus [18]): 7500 nM

O=C(Nc1nc2cccc(-c3ccc(CN4CCS(=O)(=O)CC4)cc3)n2n1)C1CC1 [FILGOTINIB]
EC50 [19]: 3100 nM
CC50 (in vitro [20]): > 10000 nM

Cc1oncc1C(=O)Nc1ccc(C(F)(F)F)cc1 [LEFLUNOMIDE]
CC50 [21]: 20800 nM
EC50 (Cytomegalovirus): 40000 nM

NC1(c2ccc(-c3nc4ccn5c(=O)[nH]nc5c4cc3-c3ccccc3)cc2)CCC1 [MK-2206]
IC50 (Influenza A virus [22]): 790 nM
CC50 [23]: 58500 nM
EC50 (Influenza A virus [24]): 790 nM

C1=C/COCc2cc(ccc2OCCN2CCCC2)Nc2nccc(n2)-c2cccc(c2)COC/1 [PACRITINIB]
CC50 [25]: > 1000 nM

CC(C)[C@H](CO)Nc1nc(Nc2cccc(Cl)c2)c2ncn(C(C)C)c2n1 [PURVALANOLA]
IC50 [26]: 4 nM
CC50 (in vitro [27]): 18700 nM
EC50 [28]: 2210 nM
EC50 (Human alphaherpesvirus 3): 1000 nM

N#CC[C@H](C1CCCC1)n1cc(-c2ncnc3[nH]ccc23)cn1 [RUXOLITINIB]
EC50 [29]: 200 nM
EC50 [28]: 300 nM
CC50 (in vitro [30]): > 100000 nM

CN1CCN(CCOc2cc(OC3CCOCC3)c3c(Nc4c(Cl)ccc5c4OCO5)ncnc3c2)CC1 [SARACATINIB]
EC50 [31]: 2900 nM
EC50 [32]: 7000 nM
EC50 (Human coronavirus 229E [33]): 2400 nM
EC50 (Dengue virus): 12200 nM
EC50 (Human coronavirus 229E [34]): 2400 nM
EC50 [35]: 2900 nM
CC50 (in vitro [2]; huh-7): 74000 nM
EC50 (dengue virus type 2): 12200 nM

CC(=O)Nc1cccc(-n2c(=O)n(C3CC3)c(=O)c3c(Nc4ccc(I)cc4F)n(C)c(=O)c(C)c32)c1 [TRAMETINIB]
CC50 [36]: > 20000 nM
EC50 (Influenza A virus [37]): 16 nM
CC50 [38]: > 20000 nM

CC(C)(C)c1cc(/C=C(\C#N)C(N)=S)cc(C(C)(C)C)c1O [TYRPHOSTIN AG 879]
Activity (Influenza A virus [39]): 50%
IC50 [40]: 1000 nM
CC50 [38]: > 81000 nM
IC50 (Influenza A virus [41]): 10000 nM

CC[C@@H]1CN(C(=O)NCC(F)(F)F)C[C@@H]1c1cnc2cnc3[nH]ccc3n12 [UPADACITINIB]
Kd [42]: 9900 nM

C=CC(=O)N1CCC([C@@H]2CCNc3c(C(N)=O)c(-c4ccc(Oc5ccccc5)cc4)nn32)CC1 [ZANUBRUTINIB]
CC50 [43]: > 1400 nM
